In patent publication US20160046592A1, “PHARMACEUTICAL COMPOSITION FOR THE TREATMENT OF DIABETES” (Ajinomoto Co., Inc., priority 2013, published 2016):
Where a name gives a salt, the structure may show the parent alone.

What follows are compounds tested against T1, PPAR-α (Homo sapiens, UniProt Q07869) (assay: Measurement of PPAR-α activity (GAL4 luciferase reporter assay in CV-1 cells)). Settings: 100(A/B): A = maximum PPAR-α activity of test compound at 3, 10, 30 and 100 μM, B = activity of the compound of WO/2011/058154 at 100 μM, 18 to 20 hours.
T1 construct: expressed in transfected cells; host or cells: CV-1 (African green monkey kidney)
T1 sequence (Q07869 167-468): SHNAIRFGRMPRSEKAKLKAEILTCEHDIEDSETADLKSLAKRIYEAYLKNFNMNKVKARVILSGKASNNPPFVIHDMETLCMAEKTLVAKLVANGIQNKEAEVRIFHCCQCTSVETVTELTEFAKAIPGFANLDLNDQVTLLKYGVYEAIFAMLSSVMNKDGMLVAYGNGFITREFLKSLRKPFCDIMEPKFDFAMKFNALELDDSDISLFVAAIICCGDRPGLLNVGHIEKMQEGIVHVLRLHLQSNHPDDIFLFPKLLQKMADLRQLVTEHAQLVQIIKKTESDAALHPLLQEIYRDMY
Type: cell-based
Procedure: The PPAR-α activity was measured according to the published article (THE JOURNAL OF BIOLOGICAL CHEMISTRY Vol. 270, No 0.22: 12953-12956, 1995).
Plasmids used for the PPAR-α activity measurement were constructed as follows. A luciferase expression plasmid (UAS×5-TK-Luc) used was obtained by introducing a sequence in which five yeast GAL4-binding sequences are linked in tandem into a portion upstream of a thymidine kinase promoter of pTAL-Luc (Takara Bio Inc., 6252-1). A PPAR-α receptor expression plasmid (hGR-GAL4-hPPARα) used was obtained by introducing a human GR N-terminal region (1-76aa), a yeast GAL4 DNA-binding region (1-147aa), and a PPARα ligand-binding region (167-468aa) between Not I and Sal I sites of pExchange-1 Core Vector (Invitrogen, 211176).
A reporter assay was conducted by the following method using African green monkey kidney-derived CV-1 cells. The CV-1 cells were seeded in a 96-well plate (Thermo Fisher Scientific K.K., 4938) at 2×10^4 cells/well by using a 10% FBS-containing DMEM (NACALAI TESQUE, INC., 0845874) medium. After culturing under conditions of 37° C. and 5% CO2 for 2 hours, the cells were transfected with the plasmids. The transfection was conducted by using Lipofectamine LTX (Invitrogen, 15338-100) according to the attached manual. The plasmid solution was prepared by adding a mixture solution of the luciferase expression plasmid and the PPAR-α receptor expression plasmid to OPTI-MEM I (Invitrogen, 11058-021). After the transfection, the test compound was added, and the cells were cultured at 37° C. in the presence of 5% CO2 for 18 to 20 hours. After the culturing, the luciferase activity was measured with Luminescensor JNR (ATTO) by using Bright-Glo (Promega, E2620).
The fold induction of PPAR-α by each test compound was calculated by the following method. A relative fold induction (%) of PPAR-α by the test compound was defined as 100 (A/B), where A represents the maximum value of the PPAR-α activities of the test compound at 3 μM, 10 μM, 30 μM, and 100 μM, and B represents the PPAR-α activity of the compound of WO/2011/058154 at 100 μM.

Point of comparison: `NC(=O)C1CC[C@@H](C(=O)O)N1C(=O)c1cccc(COc2ccc(-c3cc(F)c(F)c4ccoc34)cc2)c1` (single isomer, unassigned) [Example 4, (2S,5R) or (2S,5S)-5-Carbamoyl-1-[3-[[4-(4,5-difluorobenzofuran-7-yl)phenoxy]methyl]benzoyl]pyrrolidine-2-carboxylic Acid], “Relative fold induction (%) of PPAR α” value 10%. Against it:
- CSc1cc(F)c(F)cc1-c1ccc(OCc2cccc(C(=O)N3C(C(N)=O)CC[C@H]3C(=O)O)c2)cc1 (single isomer, unassigned) [Example 58, (2S,5S) or (2S,5R)-5-Carbamoyl-1-[3-[[4-(4,5-difluoro-2-methylsulfanyl-phenyl)phenoxy]methyl]benzoyl]pyrrolidine-2-carboxylic Acid] — lower, 7.8%
- NC(=O)C1CC[C@@H](C(=O)O)N1C(=O)c1cccc(COc2ccc(-c3cc(F)c(F)c4ccoc34)cc2)c1 (single isomer, unassigned) [Example 76, (2S,5S) or (2S,5R)-5-Carbamoyl-1-[3-[[4-(4,5-difluorobenzofuran-7-yl)phenoxy]methyl]benzoyl]pyrrolidine-2-carboxylic Acid] — higher, 42%

Same assay, conditions: 100(A/B): A = maximum PPAR-α activity of test compound at 3, 10, 30 and 100 μM, B = activity of the compound of WO/2011/058154 at 100 μM, 18 to 20 hours, read-out: Relative fold induction (%) of PPAR α

Point of comparison: `CSc1cc(F)c(F)cc1-c1ccc(OCc2cccc(C(=O)N(CCNS(C)(=O)=O)CC(=O)O)c2)cc1` [Example 17, 2-[[3-[[4-(4,5-Difluoro-2-methylsulfanyl-phenyl)phenoxy]methyl]benzoyl]-[2-(methanesulfonamido)ethyl]amino]acetic Acid], Emax 13%. Against it:
- CSc1cc(F)c(F)cc1-c1ccc(OCc2cccc(C(=O)N3C(C(N)=O)CC[C@H]3C(=O)O)c2)cc1 (single isomer, unassigned) [Example 57, (2S,5R) or (2S,5S)-5-Carbamoyl-1-[3-[[4-(4,5-difluoro-2-methylsulfanyl-phenyl)phenoxy]methyl]benzoyl]pyrrolidine-2-carboxylic Acid] — lower, 6.7%
- COC1CCN(C(=O)c2cccc(COc3ccc(-c4cc(F)c(F)cc4SC)cc3)c2)C1C(=O)O (stereo in doubt) [Example 33, (2S,3S)-1-[3-[[4-(4,5-Difluoro-2-methylsulfanyl-phenyl)phenoxy]methyl]benzoyl]-3-methoxy-pyrrolidine-2-carboxylic Acid] — the same, 13%
- NC(=O)CN(CC(=O)O)C(=O)c1cccc(COc2ccc(-c3cc(F)c(F)c4ccoc34)cc2)c1 [Example 1, 2-[(2-Amino-2-oxo-ethyl)-[3-[[4-(4,5-difluorobenzofuran-7-yl)phenoxy]methyl]benzoyl]amino]acetic Acid] — lower, 12%
- O=C(O)[C@@H]1[C@@H](O)CCN1C(=O)c1cccc(COc2ccc(-c3cc(F)c(F)c4ccoc34)cc2)c1 [Example 2, (2S,3S)-1-[3-[[4-(4,5-Difluorobenzofuran-7-yl)phenoxy]methyl]benzoyl]-3-hydroxy-pyrrolidine-2-carboxylic Acid] — lower, 5%
- O=C(O)[C@@H]1[C@H](O)CCN1C(=O)c1cccc(COc2ccc(-c3cc(F)c(F)c4ccoc34)cc2)c1 [Example 3, (2S,3R)-1-[3-[[4-(4,5-Difluorobenzofuran-7-yl)phenoxy]methyl]benzoyl]-3-hydroxy-pyrrolidine-2-carboxylic Acid] — lower, 11%
- CSc1cc(F)c(F)cc1-c1ccc(OCc2cccc(C(=O)N3CC[C@H](O)[C@H]3C(=O)O)c2)cc1 [Example 5, (2S,3S)-1-[3-[[4-(4,5-Difluoro-2-methylsulfanyl-phenyl)phenoxy]methyl]benzoyl]-3-hydroxy-pyrrolidine-2-carboxylic Acid] — lower, 10%
- CSc1cc(F)c(F)cc1-c1ccc(OCc2cccc(C(=O)N(CCC#N)CC(=O)O)c2)cc1 [Example 7, 2-[2-Cyanoethyl-[3-[[4-(4,5-difluoro-2-methylsulfanyl-phenyl)phenoxy]methyl]benzoyl]amino]acetic Acid] — higher, 16%
- CS(=O)(=O)CCN(CC(=O)O)C(=O)c1cccc(COc2ccc(-c3cc(F)c(F)c4ccoc34)cc2)c1 [Example 8, 2-[[3-[[4-(4,5-Difluorobenzofuran-7-yl)phenoxy]methyl]benzoyl]-(2-methylsulfonylethyl)amino]acetic Acid] — lower, 11%
- O=C(O)CN(CC1CCOCC1)C(=O)c1cccc(COc2ccc(-c3cc(F)c(F)c4ccoc34)cc2)c1 [Example 9, 2-[[3-[[4-(4,5-Difluorobenzofuran-7-yl)phenoxy]methyl]benzoyl]-(tetrahydropyran-4-ylmethyl)amino]acetic Acid] — higher, 24%
- CSc1cc(F)c(F)cc1-c1ccc(OCc2cccc(C(=O)N(CC(N)=O)CC(=O)O)c2)cc1 [Example 10, 2-[(2-Amino-2-oxo-ethyl)-[3-[[4-(4,5-difluoro-2-methylsulfanyl-phenyl)phenoxy]methyl]benzoyl]amino]acetic Acid] — lower, 6.7%
- CN(C)C(=O)CN(CC(=O)O)C(=O)c1cccc(COc2ccc(-c3cc(F)c(F)c4ccoc34)cc2)c1 [Example 11, 2-[[3-[[4-(4,5-Difluorobenzofuran-7-yl)phenoxy]methyl]benzoyl]-[2-(dimethylamino)-2-oxo-ethyl]amino]acetic Acid] — lower, 7.4%
- O=C(O)CN(CC1CCNCC1)C(=O)c1cccc(COc2ccc(-c3cc(F)c(F)c4ccoc34)cc2)c1 [Example 12, 2-[[3-[[4-(4,5-Difluorobenzofuran-7-yl)phenoxy]methyl]benzoyl]-(4-piperidylmethyl)amino]acetic Acid Trifluoroacetate] — lower, 4.7%
- CN(C)CCN(CC(=O)O)C(=O)c1cccc(COc2ccc(-c3cc(F)c(F)c4ccoc34)cc2)c1 [Example 13, 2-[[3-[[4-(4,5-Difluorobenzofuran-7-yl)phenoxy]methyl]benzoyl]-(2-dimethylaminoethyl)amino]acetic Acid Trifluoroacetate] — lower, 5.3%
- Cc1coc2c(-c3ccc(OCc4cccc(C(=O)N(CCS(C)(=O)=O)CC(=O)O)c4)cc3)cc(F)c(F)c12 [Example 14, 2-[[3-[[4-(4,5-Difluoro-3-methyl-benzofuran-7-yl)phenoxy]methyl]benzoyl]-(2-methylsulfonylethyl)amino]acetic Acid] — lower, 7.5%
- CNC(=O)CN(CC(=O)O)C(=O)c1cccc(COc2ccc(-c3cc(F)c(F)c4ccoc34)cc2)c1 [Example 15, 2-[[3-[[4-(4,5-Difluorobenzofuran-7-yl)phenoxy]methyl]benzoyl]-[2-(methylamino)-2-oxo-ethyl]amino]acetic Acid] — lower, 12%
- CS(=O)(=O)NCCN(CC(=O)O)C(=O)c1cccc(COc2ccc(-c3cc(F)c(F)c4ccoc34)cc2)c1 [Example 16, 2-[[3-[[4-(4,5-Difluorobenzofuran-7-yl)phenoxy]methyl]benzoyl]-[2-(methanesulfonamido)ethyl]amino]acetic Acid] — lower, 12%
- CC(C)(O)CCN(CC(=O)O)C(=O)c1cccc(COc2ccc(-c3cc(F)c(F)c4ccoc34)cc2)c1 [Example 18, 2-[[3-[[4-(4,5-Difluorobenzofuran-7-yl)phenoxy]methyl]benzoyl]-(3-hydroxy-3-methyl-butyl)amino]acetic Acid] — higher, 23%
- CSc1cc(F)c(F)cc1-c1ccc(OCc2cccc(C(=O)N(CC(=O)O)Cc3ccncc3)c2)cc1 [Example 19, 2-[[3-[[4-(4,5-Difluoro-2-methylsulfanyl-phenyl)phenoxy]methyl]benzoyl]-(4-pyridylmethyl)amino]acetic Acid Trifluoroacetate] — higher, 21%
